Usually EC50 stands for the concentration that produces a half-maximal response. Read a low EC50 as an effect from little substance.

The text below walks through data of US20220033407A1, “N-(pyridin-2-ylsulfonyl)cyclopropanecarboxamide Derivatives and their Use in the Treatment of Disease” (NOVARTIS AG, priority 2018, published 2022).

This assay addresses T1, delF508-CFTR-HRP (Homo sapiens, UniProt P13569, DEL508-508).
T1 construct: expressed in transfected cells
Put plainly: Measurement of delF508-CFTR-HRP surface expression in CFBE41o- cells (HRP luminescence).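 As to DelF508-CFTR-HRP Amax %: percent efficacy relative to a reference CFTR corrector compound.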 The format is cell-based. The settings on record: for Emax: CFBE41o-, read-out: DelF508-CFTR-HRP Amax %; for EC50: mean of at least two replicates. From the text:
Measurement of delF508-CFTR-HRP Surface Expression in CFBE41o-Cells
This assay quantifies the cell surface expressions of the mutant CFTR channel using an extracellular HRP tag.
A cellular assay was developed to measure surface expression of horseradish peroxidase (HRP) tagged delF508-CFTR in the human bronchial epithelial immortalized CFBE41o-cell line (Phuan, P. W., et al, (2014) Molecular Pharmacology 86:42-51). Specifically, the HRP sequence was inserted into the fourth extracellular loop of delF508-CFTR and stably expressed in CFBE41o-cells. Cells were seeded in 384 well plate at a density of 5000 cells/well and incubated at 37° C. for 12 to 24 hours in medium (Gibco MEM #11095, 10% FBS, 10 mM HEPES, […], 200 μg/mL G418, 3 μg/mL Puromycin). The delF508-CFTR-HRP expression was induced with 500 ng/mL doxycycline (Sigma D-9891, dissolved in H2O and sterile filtered) in medium and the cells were incubated at 37° C. for 48 h. Old medium was removed and fresh medium was added containing 500 ng/mL doxycycline and unknown test compound at required test concentration in DMSO, not exceeding 0.5% final DMSO concentration. The highest concentration tested was 10 μM with a 10-point concentration response curve using a 3-fold dilution. After addition of compounds, the cells were incubated for 24 h at 37° C. On the final day, cells were washed four times in PBS containing 1 mM MgCl2 and 0.1 mM CaCl2. HRP-Substrate (SuperSignal ELISA Pico, Fisher #37069) 20 μl/well was added and the luminescence signal was determined (Viewlux, Perkin Elmer). Light was emitted upon addition of exogenous HRP-Substrate only when delF508-CFTR-HRP reached the cell surface and the HRP tag was accessible to the HRP-Substrate (note: HRP-Substrate cannot cross the lipid bilayer to reach delF508-CFTR-HRP misfolded within the cell).
The median activity for the lowest concentration of the compounds on each assay plate was calculated and this value was used to normalize the signal for each well on the respective plate. Three replicates at each concentrations for every compound were run to determine one EC50. The median value was determined and used to calculate compound activities as described below. Effective half maximal values (EC50) were calculated for each compound by performing logistic regression on measured dose-response data points using the equation: […]
where “Y” is the observed activity, “Bottom” is the lowest observed value, “Top” is the highest observed value, and the “Hill coefficient” gives the largest absolute value of the slope. The curve fitting is carried out by a curve fitting program implemented at GNF using Matlab (Mathworks). The dose response curves also were used to calculate Fold Change (FC) using the equation: […]
Compound efficacy relative to the reference compound 3-(6-(1-(2,2-difluorobenzo[d][1,3]dioxol-5-yl)cyclopropane-1-carboxamido)-3-methylpyridin-2-yl)benzoic acid was determined using the following formula: […]

Molecules are shown by their SMILES.

T1 sequence (P13569 with tags, fused parts or gaps DEL508-508): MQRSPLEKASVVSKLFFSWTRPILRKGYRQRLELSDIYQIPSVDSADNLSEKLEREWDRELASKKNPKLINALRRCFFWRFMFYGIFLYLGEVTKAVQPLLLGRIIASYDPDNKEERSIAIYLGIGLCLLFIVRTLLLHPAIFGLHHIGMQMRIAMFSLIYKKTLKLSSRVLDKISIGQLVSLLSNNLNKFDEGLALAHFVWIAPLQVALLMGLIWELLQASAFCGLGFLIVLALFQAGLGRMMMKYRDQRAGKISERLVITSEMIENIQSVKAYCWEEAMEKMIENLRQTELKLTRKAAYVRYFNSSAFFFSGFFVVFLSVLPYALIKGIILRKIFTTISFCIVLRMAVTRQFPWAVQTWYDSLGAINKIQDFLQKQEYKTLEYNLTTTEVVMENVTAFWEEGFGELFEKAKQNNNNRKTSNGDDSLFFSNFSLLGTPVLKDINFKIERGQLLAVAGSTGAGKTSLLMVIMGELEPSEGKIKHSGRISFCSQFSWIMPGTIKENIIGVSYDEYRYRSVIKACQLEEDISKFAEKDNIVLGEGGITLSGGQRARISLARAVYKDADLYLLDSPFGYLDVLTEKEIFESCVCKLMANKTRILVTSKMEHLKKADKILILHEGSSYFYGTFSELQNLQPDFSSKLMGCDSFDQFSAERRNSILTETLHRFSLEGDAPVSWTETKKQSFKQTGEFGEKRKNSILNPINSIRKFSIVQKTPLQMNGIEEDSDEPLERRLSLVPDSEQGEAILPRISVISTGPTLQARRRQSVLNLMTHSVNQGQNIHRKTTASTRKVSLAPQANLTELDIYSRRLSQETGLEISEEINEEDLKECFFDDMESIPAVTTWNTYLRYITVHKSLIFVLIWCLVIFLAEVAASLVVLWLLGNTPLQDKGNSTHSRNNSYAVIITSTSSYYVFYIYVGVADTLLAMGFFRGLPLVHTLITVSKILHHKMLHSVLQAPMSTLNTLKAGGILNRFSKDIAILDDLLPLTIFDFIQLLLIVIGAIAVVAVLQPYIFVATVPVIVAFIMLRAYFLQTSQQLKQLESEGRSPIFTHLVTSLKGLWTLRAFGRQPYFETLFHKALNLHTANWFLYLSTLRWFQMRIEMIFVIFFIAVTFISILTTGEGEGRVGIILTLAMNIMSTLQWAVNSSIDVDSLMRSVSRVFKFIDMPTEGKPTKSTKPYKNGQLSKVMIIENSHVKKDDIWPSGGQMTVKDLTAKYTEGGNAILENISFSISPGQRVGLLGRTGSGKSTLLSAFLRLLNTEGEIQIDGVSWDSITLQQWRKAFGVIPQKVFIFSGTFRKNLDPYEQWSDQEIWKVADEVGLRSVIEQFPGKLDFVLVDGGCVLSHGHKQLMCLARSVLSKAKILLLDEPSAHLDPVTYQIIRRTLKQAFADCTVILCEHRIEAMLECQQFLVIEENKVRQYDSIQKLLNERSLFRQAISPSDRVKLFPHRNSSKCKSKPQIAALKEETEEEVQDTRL

With `Cc1ccc(OC2CCC(C(C)(C)C)CC2)c(OC2(C(=O)NS(=O)(=O)c3cccc(N4CCC(C)(O)CC4)n3)CC2)c1` (centres unmarked) [Example 6-5, 1-(2-((4-(tert-butyl)cyclohexyl)oxy)-5-methylphenoxy)-N-((6-(4-hydroxy-4-methylpiperidin-1-yl)pyridin-2-yl)sulfonyl)cyclopropanecarboxamide], the Emax stood at 519% and the EC50 worked out at 370 nM.

For the molecule `CC1(O)CCCN(c2cccc(S(=O)(=O)NC(=O)C3(Oc4cc(Cl)ccc4C4CC5(CCC5)C4)CC3)n2)C1` (single isomer, unassigned) [Example 7-8-2, 1-(5-chloro-2-(spiro[3.3]heptan-2-yl)phenoxy)-N-((6-(3-hydroxy-3-methylpiperidin-1-yl)pyridin-2-yl)sulfonyl)cyclopropanecarboxamide], the “DelF508-CFTR-HRP Amax %” value is reported as 248.0% and the EC50 came to 1020 nM.

`COCCN(C)c1cccc(S(=O)(=O)NC(=O)C2(Oc3cc(Cl)ccc3N3CCC(C)(C)CC3)CC2)n1` [Example 10-5, 1-(5-chloro-2-(4,4-dimethylpiperidin-1-yl)phenoxy)-N-((6-((2-methoxyethyl)(methyl)amino)pyridin-2-yl)sulfonyl)cyclopropanecarboxamide]: the Emax was determined as 475% and the concentration giving a half-maximal response (EC50) came to 1020 nM.

For `O=C(NS(=O)(=O)c1cccc(N2C[C@H]3CC[C@@H](O)[C@H]3C2)n1)C1(Oc2cc(Cl)ccc2N2CC3(CCCCC3)C2)CC1` [Example 9-3, 1-(5-chloro-2-(2-azaspiro[3.5]nonan-2-yl)phenoxy)-N-((6-((3aR,4R,6aS)-4-hydroxyhexahydrocyclopenta[c]pyrrol-2(1H)-yl)pyridin-2-yl)sulfonyl)cyclopropane-1-carboxamide], the Emax came out at 588% and the EC50 came to 1350 nM.

`CC1(C)CN(c2ccc(Cl)cc2OC2(C(=O)NS(=O)(=O)c3cccc(N4CC[C@H](O)C4)n3)CC2)C1` [Example 9-21, (S)-1-(5-Chloro-2-(3,3-dimethylazetidin-1-yl)phenoxy)-N-((6-(3-hydroxypyrrolidin-1-yl)pyridin-2-yl)sulfonyl)cyclopropanecarboxamide]: the Emax amounted to 720% and the EC50 was determined as 2280 nM.

Turning to `CC1(O)CCCN(c2cccc(S(=O)(=O)NC(=O)C3(Oc4cc(Cl)ccc4C4CC5(CCC5)C4)CC3)n2)C1` (single isomer, unassigned) [Example 7-8-1, 1-(5-chloro-2-(spiro[3.3]heptan-2-yl)phenoxy)-N-((6-(3-hydroxy-3-methylpiperidin-1-yl)pyridin-2-yl)sulfonyl)cyclopropanecarboxamide], the “DelF508-CFTR-HRP Amax %” value is reported as 535.5% and a half-maximal effect (EC50) was put at 1000 nM.

Take `CC1CC(C)CN(c2ccc(Cl)cc2OC2(C(=O)NS(=O)(=O)c3cccc(N4CC[C@H](O)C4)n3)CC2)C1` (stereo partly drawn) [Example 9-17, 1-(5-Chloro-2-(3,5-dimethylpiperidin-1-yl)phenoxy)-N-((6-((S)-3-hydroxypyrrolidin-1-yl)pyridin-2-yl)sulfonyl)cyclopropanecarboxamide]: the Emax was 176% and the EC50 is 1290 nM.

Turning to `Cc1ccc(C2CCC(C)(C)OC2)c(OC2(C(=O)NS(=O)(=O)c3cccc(N4CCC(O)(C(F)(F)F)CC4)n3)CC2)c1` (single isomer, unassigned) [Example 11-2-1, 1-(2-(6,6-Dimethyltetrahydro-2H-pyran-3-yl)-5-methylphenoxy)-N-((6-(4-hydroxy-4-(trifluoromethyl)piperidin-1-yl)pyridin-2-yl)sulfonyl)cyclopropane-1-carboxamide], the “DelF508-CFTR-HRP Amax %” value turned out to be 473.8% and a half-maximal response (EC50) required 1860 nM.

For the molecule `O=C(NS(=O)(=O)c1cccc(N2CC3CCC(C2)O3)n1)C1(Oc2cc(Cl)ccc2C2CC3(CCC3)C2)CC1` [Example 7-16, N-((6-(8-Oxa-3-azabicyclo[3.2.1]octan-3-yl)pyridin-2-yl)sulfonyl)-1-(5-chloro-2-(spiro[3.3]heptan-2-yl)phenoxy)cyclopropane-1-carboxamide], the Emax was determined as 381% and a half-maximal effect (EC50) was put at 1240 nM.

`CC(C)(C)C1CCC(Nc2ccc(Cl)cc2OC2(C(=O)NS(=O)(=O)c3cccc(N4CC[C@H](O)C4)n3)CC2)CC1` (single isomer, unassigned) [Example 9-5-1]: the “DelF508-CFTR-HRP Amax %” value came out at 93.6% and the half-maximal effective concentration (EC50) was 960 nM.

As to `CC1(C)CCN(c2ccc(Cl)cc2OC2(C(=O)NS(=O)(=O)c3cccc(N4CCCC(C)(O)C4)n3)CC2)CC1` (single isomer, unassigned) [Example 9-43-2, 1-(5-Chloro-2-(4,4-dimethylpiperidin-1-yl)phenoxy)-N-((6-(3-hydroxy-3-methylpiperidin-1-yl)pyridin-2-yl)sulfonyl)cyclopropane-1-carboxamide], the “DelF508-CFTR-HRP Amax %” value is given as 367.4% and the EC50 worked out at 1920 nM.

As to `O=C(NS(=O)(=O)c1cccc(N2CC3(CCO3)C2)n1)C1(Oc2cc(Cl)ccc2C2CC3(CCC3)C2)CC1` [Example 7-5, N-((6-(1-oxa-6-azaspiro[3.3]heptan-6-yl)pyridin-2-yl)sulfonyl)-1-(5-chloro-2-(spiro[3.3]heptan-2-yl)phenoxy)cyclopropanecarboxamide], the Emax came out at 493% and it took 880 nM to reach a half-maximal effect (EC50).

For the molecule `CC1(C)CCN(c2ccc(Cl)cc2OC2(C(=O)NS(=O)(=O)c3cccc(N4CC[C@](C)(O)C4)n3)CC2)CC1` [Example 10-1, (S)-1-(5-chloro-2-(4,4-dimethylpiperidin-1-yl)phenoxy)-N-((6-(3-hydroxy-3-methylpyrrolidin-1-yl)pyridin-2-yl)sulfonyl)cyclopropanecarboxamide], the Emax amounted to 547% and the response was half-maximal at 530 nM (EC50).

As for `O=C(NS(=O)(=O)c1cccc(N2CC[C@@H](O)C2)n1)C1(Oc2cc(Cl)ccc2N2CC3(CCCCC3)C2)CC1` [Example 9-6, (R)-1-(5-Chloro-2-(2-azaspiro[3.5]nonan-2-yl)phenoxy)-N-((6-(3-hydroxypyrrolidin-1-yl)pyridin-2-yl)sulfonyl)cyclopropanecarboxamide], the Emax was 388% and the half-maximal effective concentration (EC50) was 910 nM.

For the molecule `O=C(NS(=O)(=O)c1cccc(N2CC[C@H](O)C2)n1)C1(Oc2cc(Cl)ccc2N2CC3(CCCCO3)C2)CC1` [Example 9-8, (S)-1-(5-Chloro-2-(5-oxa-2-azaspiro[3.5]nonan-2-yl)phenoxy)-N-((6-(3-hydroxypyrrolidin-1-yl)pyridin-2-yl)sulfonyl)cyclopropanecarboxamide], the Emax was 204% and the half-maximal effective concentration (EC50) was 4040 nM.

`Cc1ccc(C)c(OC2(C(=O)NS(=O)(=O)c3cccc(NC[C@@H](C)O)n3)CCCC2)c1` [Example 4-4, (R)-1-(2,5-dimethylphenoxy)-N-((6-((2-hydroxypropyl)amino)pyridin-2-yl)sulfonyl)cyclopentane-1-carboxamide]: the Emax came out at 84% and the EC50 was 4770 nM.

Take `O=C(NS(=O)(=O)c1cccc(N2CCC(O)(C(F)(F)F)CC2)n1)C1(Oc2cc(Cl)ccc2N2CCC3(CC2)CC3)CC1` [Example 9-31, 1-(5-Chloro-2-(6-azaspiro[2.5]octan-6-yl)phenoxy)-N-((6-(4-hydroxy-4-(trifluoromethyl)piperidin-1-yl)pyridin-2-yl)sulfonyl)cyclopropanecarboxamide]: the Emax came to 553% and the EC50 came to 410 nM.

`Cc1ccc(OC2CCC(C(C)(C)C)CC2)c(OC2(C(=O)NS(=O)(=O)c3cccc(N4CC[C@H](O)C4)n3)CC2)c1` (stereo partly drawn) [Example 6-4, (S)-1-(2-((4-(tert-butyl)cyclohexyl)oxy)-5-methylphenoxy)-N-((6-(3-hydroxypyrrolidin-1-yl)pyridin-2-yl)sulfonyl)cyclopropanecarboxamide]: the Emax came to 526% and a half-maximal response (EC50) required 330 nM.

For the molecule `Cc1ccc(OC2CCCCC2)c(OC2(C(=O)NS(=O)(=O)c3cccc(N4CC[C@H](O)C4)n3)CC2)c1` [Example 6-3, (S)-1-(2-(Cyclohexyloxy)-5-methylphenoxy)-N-((6-(3-hydroxypyrrolidin-1-yl)pyridin-2-yl)sulfonyl)cyclopropane-1-carboxamide], the Emax stood at 507% and a half-maximal response (EC50) required 2780 nM.
